# In patent publication US20090298150A1, “PRODUCTION OF SQUALENE USING YEAST” (priority 2008, published 2009):
# Experiments:
# [1] = test system: Yarrowia lipolytica ATCC 90904; test: Cultivation of Yarrowia lipolytica in CYM001 media with supplements; squalene and lipid production; type: cell-based; conditions: 30° C., 300 rpm, 120 h
# Method: Environmental manipulations are tested to increase the net yield of squalene. These include (a) inhibiting ACCase expression and/or activity with oleic acid, olive or other vegetable oil(s), inositol, choline, soraphen, fluazifop, and clethodim or other ACCase inhibiting herbicides, (b) inhibiting squalene epoxidase expression and/or activity with terbinafine, tolnaftate, and ergosterol or other squalene epoxidase inhibiting fungicides, (c) manipulating the C/N ratio in glycerol-based media (in the starting media or by add-ins), (d) varying the nitrogen source in the media (organic vs. inorganic vs. simple/complex), (e) varying carbon addition regimes (e.g. batch vs. feeding), (f) examining the effect of depleting nutrients other than carbon source, (g) varying the carbon source to include mixtures of sugars, sugar alcohols, alcohols, polyalcohols, and organic acids, (h) selecting for growth on HMGR-inhibitory compounds such as lovastatin or other statin-type inhibitors, and (i) selecting for high oil production in culture using lipophillic dyes or stains and/or by analyzing for extractable lipids using, for example, gravimetric or gas chromatographic methods.
# For example, Yarrowia lipolytica ATCC 90904 was cultivated in high Carbon/Nitrogen ratio media (C/N=420, Li, Y-H., Liu, B., Zhao, Z-B., and Bai, F-W. 2006 “Optimized Culture Medium and Fermentation Conditions for Lipid Production by Rhodosporidium toruloides” Chinese Journal of Biotechnology 22(4): 650-656) (hereinafter “CYM001 Media”) supplemented with 0 to 50 μg/ml terbinafine at 30° C., 300 rpm for 120 h. […]
# In a further example, Yarrowia lipolytica ATCC 90904 was cultivated in CYM001 media supplemented with 0 to 200 μM clethodim at 30° C., 300 rpm for 120 h.
# [2] = test system: Cryptococcus curvatus; test: Cryptococcus curvatus growth on carbon sources (cell mass in culture); conditions: 12% w/v glycerol; Yeast Extract-based rich media; after 5 days
# Method: Cryptococcus curvatus growth was evaluated to determine the best carbon sources to maximize its cell mass in culture. In a Yeast Extract-based rich media (10 g/L yeast extract, 20 g/L peptone), C. curvatus grew well in 2-20% w/v glucose, achieving a maximal level of 55 g/L cell dry weight (CDW) at 16% w/v glucose and above after 4 days. Similarly, C. curvatus grew in the same media with 3-12% w/v glycerol, achieving a CDW of 40 g/L in 12% w/v glycerol after 5 days. C. curvatus was also grown in Biodiesel glycerol (Imperial Western Products, Coachella, Calif.) up to 3.5% w/v, resulting in 23 g/L CDW.
smiles,measurement,setting,value
CCCCCCCC/C=C\CCCCCCCC(=O)O [Oleic acid],"lipid accumulation, % lipid/CDW (cell dry weight)","[1]; 10 μl/ml Oleic acid, CYM001 media",63.3 % lipid/CDW
CN(C/C=C/C#CC(C)(C)C)Cc1cccc2ccccc12 [terbinafine],squalene as % of total lipid,"[1]; 12.5 μg/ml or higher terbinafine, CYM001 Media",up to 18.5%
CCSC(C)CC1CC(=O)C(/C(CC)=N/OC/C=C/Cl)=C(O)C1 (stereo not shown) [clethodim],increase in the yield (mg) of squalene per 60-ml flask,"[1]; 200 μM clethodim, CYM001 media",60 fold
OCC(O)CO [glycerol],cell dry weight (CDW),[2],40 g/L
